Test results as given in paper PMC7531601, “Exploiting Lactoferricin (17–30) as a Potential Antimicrobial and Antibiofilm Candidate Against Multi-Drug-Resistant Enteroaggregative Escherichia coli” (Frontiers in Microbiology, 2020).
Where two headings read alike, the source gives them in different places. Ends that are not written are not given here.

Legend:
[1] = tested on: preformed (48 h) MDR-EAEC biofilm; conditions: preformed (48 h) biofilm of MDR-EAEC strains
Description: The MBEC of Lfcin (17–30) was determined against the preformed (48 h) MDR-EAEC biofilm ([Ceri et al., 1999]). MBEC value is the lowest concentration of Lfcin (17–30) that prevented the MDR-EAEC re-growth. This MBEC value of Lfcin (17–30) was further used to study the eradication of biofilm formed by MDR-EAEC strains.

MDR-EAEC isolates = tested on: MDR-EAEC isolates
Description: Initially, characterization of Lfcin (17–30) was performed by determining its minimum inhibitory concentration (MIC), minimum bactericidal concentration (MBC), in vitro stability assays (high-end temperatures, the physiological concentration of cationic salts and proteases), and in vitro safety assays (sheep erythrocyte hemolysis and secondary cell line cytotoxicity) (Supplementary Files S1–S3). The membrane permeabilization effect of Lfcin (17–30) was assessed by flow cytometry, whereas outer and inner membrane permeability of MDR-EAEC strains treated with 1 × and 2 × MIC levels of Lfcin (17–30) was carried out based on the nitrocefin activity as well as the release of cytoplasmic β-galactosidase activity, respectively (Supplementary File S4). Further, Lfcin (17–30) was evaluated for its antibacterial activity against beneficial lactobacilli (L. acidophilus MTCC 10307 and L. rhamnosus MTCC 1408) (Supplementary File S5).
To explore the utility of Lfcin (17-30) as a therapeutic molecule, in vitro stability was evaluated by exposing it to high-end temperatures, proteases as well as the physiological concentration of salts. In brief, the effect of temperature was investigated by incubating Lfcin (17-30) at 70 °C and 90 °C for 5, 15, and 30 min followed by measuring the MIC value. The effect of proteases (trypsin and proteinase-K) on the antimicrobial activity of Lfcin (17-30) [Protease: AMP- 1:100 (w/w)] was investigated by incubating with the respective protease at 37 °C for 30 sec, 2, 5, 15 and 30 min, followed by inactivating the enzyme at 90 °C for 10 min and measuring the MIC value. The stability of Lfcin (17-30) in the presence of high salt concentrations (150 mM and 2 mM MgCl2) was estimated in regular MH broth. Appropriate controls were included in each experiment.

[2] = MgCl2 (2 mM), regular MH broth, MDR 1
[3] = MgCl2 (2 mM), regular MH broth, MDR 2
[4] = MgCl2 (2 mM), regular MH broth, MDR 3
[5] = NaCl (150 mM), regular MH broth, MDR 1
[6] = NaCl (150 mM), regular MH broth, MDR 2
[7] = NaCl (150 mM), regular MH broth, MDR 3
[8] = peptide incubated at 70°C for 5 min, MDR 1
[9] = peptide incubated at 70°C for 5 min, MDR 2
[10] = peptide incubated at 70°C for 5 min, MDR 3
[11] = peptide incubated at 70°C for 15 min, MDR 1
[12] = peptide incubated at 70°C for 15 min, MDR 2
[13] = peptide incubated at 70°C for 15 min, MDR 3
[14] = peptide incubated at 70°C for 30 min, MDR 1
[15] = peptide incubated at 70°C for 30 min, MDR 2
[16] = peptide incubated at 70°C for 30 min, MDR 3
[17] = peptide incubated at 90°C for 5 min, MDR 1
[18] = peptide incubated at 90°C for 5 min, MDR 2
[19] = peptide incubated at 90°C for 5 min, MDR 3
[20] = peptide incubated at 90°C for 15 min, MDR 1
[21] = peptide incubated at 90°C for 15 min, MDR 2
[22] = peptide incubated at 90°C for 15 min, MDR 3
[23] = peptide incubated at 90°C for 30 min, MDR 1
[24] = peptide incubated at 90°C for 30 min, MDR 2
[25] = peptide incubated at 90°C for 30 min, MDR 3
[26] = proteinase-K 1:100 (w/w), 37°C, 2 min, MDR 1

FKCRRWQWRMKKLG [Lfcin (17–30)]
16.0 mg/L: MBC (MDR-EAEC isolates; proteinase-K 1:100 (w/w), 37°C, 0.5 min, MDR 1) | MBC (MDR-EAEC isolates; [26])
8.0 mg/L: MIC (MDR-EAEC isolates; [26])
32.0 mg/L: MBC (MDR-EAEC isolates; [2]) | MIC (MDR-EAEC isolates; [2]) | MBC (MDR-EAEC isolates; [3]) | MIC (MDR-EAEC isolates; [3]) | MBC (MDR-EAEC isolates; [4]) | MIC (MDR-EAEC isolates; [4]) | MBC (MDR-EAEC isolates; [5]) | MIC (MDR-EAEC isolates; [5]) | MBC (MDR-EAEC isolates; [6]) | MIC (MDR-EAEC isolates; [6]) | MBC (MDR-EAEC isolates; [7]) | MIC (MDR-EAEC isolates; [7]) | MBC (MDR-EAEC isolates; [8]) | MIC (MDR-EAEC isolates; [8]) | MBC (MDR-EAEC isolates; [9]) | MIC (MDR-EAEC isolates; [9]) | MBC (MDR-EAEC isolates; [10]) | MIC (MDR-EAEC isolates; [10]) | MBC (MDR-EAEC isolates; [11]) | MIC (MDR-EAEC isolates; [11]) | MBC (MDR-EAEC isolates; [12]) | MIC (MDR-EAEC isolates; [12]) | MBC (MDR-EAEC isolates; [13]) | MIC (MDR-EAEC isolates; [13]) | MBC (MDR-EAEC isolates; [14]) | MIC (MDR-EAEC isolates; [14]) | MBC (MDR-EAEC isolates; [15]) | MIC (MDR-EAEC isolates; [15]) | MBC (MDR-EAEC isolates; [16]) | MIC (MDR-EAEC isolates; [16]) | MBC (MDR-EAEC isolates; [17]) | MIC (MDR-EAEC isolates; [17]) | MBC (MDR-EAEC isolates; [18]) | MIC (MDR-EAEC isolates; [18]) | MBC (MDR-EAEC isolates; [19]) | MIC (MDR-EAEC isolates; [19]) | MBC (MDR-EAEC isolates; [20]) | MIC (MDR-EAEC isolates; [20]) | MBC (MDR-EAEC isolates; [21]) | MIC (MDR-EAEC isolates; [21]) | MBC (MDR-EAEC isolates; [22]) | MIC (MDR-EAEC isolates; [22]) | MBC (MDR-EAEC isolates; [23]) | MIC (MDR-EAEC isolates; [23]) | MBC (MDR-EAEC isolates; [24]) | MIC (MDR-EAEC isolates; [24]) | MBC (MDR-EAEC isolates; [25]) | MIC (MDR-EAEC isolates; [25]) | MBC (MDR-EAEC isolates; proteinase-K 1:100 (w/w), 37°C, 0.5 min, MDR 2) | MBC (MDR-EAEC isolates; proteinase-K 1:100 (w/w), 37°C, 2 min, MDR 2)
4.0 mg/L: MBC (MDR-EAEC isolates; proteinase-K 1:100 (w/w), 37°C, 0.5 min, MDR 3)
32 µM: MBEC [1]
